Experiments:
human COX-2 = biological target: T1, human COX-2 (Homo sapiens, UniProt P35354); experiment: Inhibition of PGE2 release in COS cells stably transfected with human COX-2; type: cell-based; details: COS cells transfected with human COX-2, 30 μM arachidonic acid
T1 construct: expressed in transfected cells; host or cells: COS cells (stably transfected)
T1 sequence (P35354 18-604): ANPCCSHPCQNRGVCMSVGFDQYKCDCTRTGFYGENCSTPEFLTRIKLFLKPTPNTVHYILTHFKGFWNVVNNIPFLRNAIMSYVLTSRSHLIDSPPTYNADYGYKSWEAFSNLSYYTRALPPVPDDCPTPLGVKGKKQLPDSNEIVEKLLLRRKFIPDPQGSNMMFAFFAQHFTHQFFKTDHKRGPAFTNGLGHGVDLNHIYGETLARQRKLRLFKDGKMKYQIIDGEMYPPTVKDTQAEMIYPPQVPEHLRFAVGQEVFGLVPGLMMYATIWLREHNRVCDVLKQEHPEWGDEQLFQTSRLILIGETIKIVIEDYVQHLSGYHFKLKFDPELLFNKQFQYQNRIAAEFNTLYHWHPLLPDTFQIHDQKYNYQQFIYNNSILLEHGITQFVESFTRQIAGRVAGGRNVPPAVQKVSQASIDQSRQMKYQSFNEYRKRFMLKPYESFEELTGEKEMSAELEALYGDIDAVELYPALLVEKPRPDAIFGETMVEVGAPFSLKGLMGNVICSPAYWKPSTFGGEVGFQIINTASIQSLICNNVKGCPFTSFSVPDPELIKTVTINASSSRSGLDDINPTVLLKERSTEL

human COX-1 = biological target: T2, human COX-1 (Homo sapiens, UniProt P23219); experiment: Inhibition of PGE2 release in COS cells stably transfected with human COX-1; type: cell-based; details: COS cells transfected with human COX-1, 30 μM arachidonic acid
T2 construct: expressed in transfected cells; host or cells: COS cells (stably transfected)
Protocol: 24 Hours prior to experiment, COS cells were transferred from the 175 cm^2 flasks in which they were grown, onto 24-well cell culture plates using the following procedure. The incubation medium (Dulbecco's modified eagles medium (DMEM) supplemented with heat-inactivated foetal calf serum (10% v/v), penicillin (100 IU/ml), streptomycin (100 μg/ml) and genebcin (600 μg/ml)) was removed from a flask of confluent cells (1 flask at confluency contains approximately lx107 cells). 10 mI of phosphate buffered saline (PBS) was added to the flask to wash the cells. Having discarded the PBS, cells were then rinsed in 10 ml trypsin for 20 seconds, after which the trypsin was removed and the flask placed in an incubator (37°) for 1-2 minutes unbil cells became detached from the flask. The flask was then removed from the incubator and cells resuspended in 10 ml of fresh incubation medium. The contents of the flask was transferred to a 250 ml sterile container and the volume of incubation medium subsequently made up to 100 ml. […] If more than 1 flask of cells were required, the cells from the individual flasks were combined before being dispensed into the 24-well plates.
Following the overnight incubation, the incubation medium was completely removed from the 24-well cell culture plates and replaced with 250 μl fresh DMEM (37° C.). The test compounds were made up to 250× the required test concentration in DMSO and were added to the wells in a volume of 1 μl. […] Plates were then incubated for a further 15 minutes, after which the incubation medium was removed from each well of the plates and stored at −20° C., prior to determination of prostaglandin E2 (PGE2) levels using enzyme immunoassay. […] The selectivity ratio of inhibition of COX-1 versus COX-2 was calculated by comparing respective IC50 values.

microsomal h-COX2 = biological target: T3, microsomal h-COX2 (Homo sapiens, UniProt P35354); experiment: Microsomal assay, h-COX2 preparation from baculovirus infected SF9 cells; type: biochemical; details: stated in text under the microsomal assay; read-out: IC50 values for inhibition of COX-2
T3 construct: made in house; host or cells: baculovirus infected SF9 cells (microsomal preparation)
T3 sequence (P35354 18-604): T1 sequence (P35354 18-604)
Protocol: Inhibitory activity against microsomal h-COX2 was assessed against a microsomal preparation from baculovirus infected SF9 cells. An aliquot of microsomal preparation was thawed slowly on ice and a 1/40,000 dilution prepared from it into the assay buffer (sterile water, degassed with argon containing 100 mM HEPES (pH 7.4), 10 mM EDTA (pH7.4), 1 mM phenol, 1 mM reduced glutathione, 20 mg/ml gelatin and 0.001 mM Hematin). Once diluted the enzyme solution was then sonicated for 5 seconds (Branson sonicator, setting 4, 1 cm tip) to ensure a homogeneous suspension. […] Plates were then mixed and incubated at room temperature for 1 hour. Following the incubation period, 40 μl of 0.5 μM arachidonic acid was added to each well to give a final concentration of 0.1 μM. Plates were then mixed and incubated for exactly 10 minutes (room temperature) prior to addition of 25 μl 1M HCl (hydrochloric acid) to each well to stop the reaction. 25 μl of 1M NaOH (sodium hydroxide) was then added to each well to neutralise the solution prior to determination of PGE2 levels by enzyme immunoassay (EIA).

T2 sequence (P23219 24-599): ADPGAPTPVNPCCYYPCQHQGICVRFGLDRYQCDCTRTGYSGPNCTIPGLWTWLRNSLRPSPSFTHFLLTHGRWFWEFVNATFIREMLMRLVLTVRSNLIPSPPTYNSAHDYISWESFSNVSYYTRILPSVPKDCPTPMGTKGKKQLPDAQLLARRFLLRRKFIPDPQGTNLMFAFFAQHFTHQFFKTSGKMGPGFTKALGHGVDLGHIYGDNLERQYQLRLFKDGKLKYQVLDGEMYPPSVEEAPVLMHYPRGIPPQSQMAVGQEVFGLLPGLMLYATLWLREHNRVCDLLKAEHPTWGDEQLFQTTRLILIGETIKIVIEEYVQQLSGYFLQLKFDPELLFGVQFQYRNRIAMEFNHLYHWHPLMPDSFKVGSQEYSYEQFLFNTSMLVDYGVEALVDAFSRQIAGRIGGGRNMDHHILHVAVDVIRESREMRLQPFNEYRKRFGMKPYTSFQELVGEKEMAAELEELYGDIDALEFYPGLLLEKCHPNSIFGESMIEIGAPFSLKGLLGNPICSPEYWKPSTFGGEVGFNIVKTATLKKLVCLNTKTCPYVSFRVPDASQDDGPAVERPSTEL

Row | Structure (SMILES) | IC50 (human COX-2) [µM] | IC50 (human COX-1) [µM] | IC50 (microsomal h-COX2) [µM]
1 | COc1ccc(Oc2nc(-c3ccc(S(C)(=O)=O)cc3)cc(C(F)(F)F)n2)cc1 [Example 1.3] | 0.004 | 2.92 | –
2 | COc1ccc(-c2nn3ncccc3c2-c2ccc(S(C)(=O)=O)cc2)cc1 [2.2(ii), 3-(4-Methanesulfonyl-phenyl)-2-(4-methoxy-phenyl)-pyrazolo[1,5-b]pyridazine] | – | 3.88 | –
3 | CS(=O)(=O)c1ccc(-c2c(-c3ccc(F)cc3)nn3nc(S(C)(=O)=O)ccc23)cc1 [2.4(iii), 2-(4-Fluoro-phenyl)-6-methanesulfonyl-3-(4-methanesulfonyl-phenyl)-pyrazolo[1,5-b]pyridazine] | 0.37 | – | –
4 | CCOc1ccc(-c2nn3ncccc3c2-c2ccc(S(C)(=O)=O)cc2)cc1 [2.3(ii), 2-(4-Ethoxy-phenyl)-3-(4-methanesulfonyl-phenyl)-pyrazolo[1,5-b]pyridazine] | 0.003 | – | –
5 | CCOc1ccc(-c2nn3ncccc3c2-c2ccc(S(N)(=O)=O)cc2)cc1 [2.6(iv), 4-[2-(4-Ethoxy-phenyl)-pyrazolo[1,5-b]pyridazin-3-yl]-benzenesulfonamide] | 0.00044 | 3.83 | –
6 | CS(=O)(=O)c1ccc(-c2cc(C(F)(F)F)cc(NC3CCCCC3)n2)cc1 [Example 3.1, N-cyclohexyl-4-(trifluoromethyl)-6-[4-(methylsulfonyl)phenyl]pyridine-2-amine] | – | – | ≤ 0.5
7 | Cc1cc(NCc2cnn(C)c2)nc(-c2ccc(S(C)(=O)=O)cc2)c1 [Example 3.3, 4-methyl-N-[(1-methyl-1H-pyrazol-4-yl)methyl]-6-[4-(methylsulfonyl)phenyl]-2-pyridinamine] | – | – | ≤ 0.5
8 | CS(=O)(=O)c1ccc(-c2cc(C(F)(F)F)nc(Oc3ccc(F)cc3)n2)cc1 [Example 1.1, 2-(4-Fluorophenoxy)-4-[4-(methylsulfonyl)phenyl]-6-(tiifluoromethyl)pyrimidine] | < 0.001 | 81.3 | –

Source: patent US20070142411A1, “Use of cyclooxygenase-2 selective inhibitors for the treatment of schizophrenic disorders” (priority 2003, published 2007)
